Measured values as given in PubChem BioAssay (NCI).
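These data come from cells grown in 96-well plates and exposed to compound for 48 hours at five concentrations. The concentration for 50% growth inhibition is given as GI50. TGI denotes the concentration required for complete inhibition of growth.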

Columns and labels:
Experiment in all cases: NCI tumour cell line growth inhibition, 48 h
[1] = system: MOLT-4 leukemia
[2] = system: OVCAR-5 ovarian
[3] = system: OVCAR-3 ovarian
[4] = system: TK-10 renal
[5] = system: U251 CNS
[6] = system: NCI-H522 lung
[7] = system: PC-3 prostate
[8] = system: HOP-92 NSCLC
[9] = system: SK-MEL-28 melanoma
[10] = system: NCI-H23 lung
[11] = system: RPMI-8226 leukemia
[12] = system: HT29 colon
[13] = system: 786-0 renal
[14] = system: HCT-116 colon
[15] = system: T-47D breast
[16] = system: SNB-19 CNS
[17] = system: MALME-3M melanoma
[18] = system: DU-145 prostate
[19] = system: CCRF-CEM leukemia
[20] = system: SW-620 colon
[21] = system: SF-268 CNS
[22] = system: SR leukemia
[23] = system: HL-60(TB) leukemia
[24] = system: SK-MEL-2 melanoma
[25] = system: SF-295 CNS
[26] = system: HCC-2998 colon
[27] = system: A549 NSCLC
[28] = system: HOP-62 NSCLC
[29] = system: M14 melanoma
[30] = system: UACC-257 melanoma
[31] = system: OVCAR-4 ovarian
[32] = system: CAKI-1 renal
[33] = system: EKVX NSCLC
[34] = system: NCI-H226 lung
[35] = system: MCF7 breast
[36] = system: UACC-62 melanoma
[37] = system: SK-OV-3 ovarian
[38] = system: IGROV1 ovarian
[39] = system: ACHN renal
[40] = system: RXF 393 renal
[41] = system: A498 renal
[42] = system: LOX IMVI melanoma
[43] = system: SK-MEL-5 melanoma
[44] = system: KM12 colon
[45] = system: NCI/ADR-RES ovarian
[46] = system: MDA-MB-435
[47] = system: COLO 205 colon
[48] = system: NCI-H460 lung
[49] = system: HCT-15 colon
[50] = system: SF-539 CNS
[51] = system: SNB-75 CNS
[52] = system: MDA-MB-231 breast
[53] = system: HS 578T breast
[54] = system: OVCAR-8 ovarian
[55] = system: UO-31 renal
[56] = system: K-562 leukemia
[57] = system: BT-549 breast
[58] = system: SN12C renal

Compound: O=C1/C=C/[C@@H](O)[C@@H]2C[C@@H](O)C[C@H]2/C=C/CCC[C@H](CCc2ccccc2)O1
- GI50 [1]: 36 nM
- GI50 [2]: 57.3 nM
- TGI [2]: > 100000 nM
- GI50 [3]: 25.4 nM
- TGI [3]: 61.1 nM
- GI50 [4]: 34.8 nM
- TGI [4]: 206 nM
- GI50 [5]: 40.6 nM
- TGI [5]: 30100 nM
- GI50 [6]: 41.2 nM
- TGI [6]: 200 nM
- GI50 [7]: 44.4 nM
- TGI [7]: 24800 nM
- GI50 [8]: 31 nM
- TGI [8]: 396 nM
- GI50 [9]: < 10 nM
- TGI [9]: 45.6 nM
- GI50 [10]: 33.4 nM
- TGI [10]: 285 nM
- GI50 [11]: 41.4 nM
- TGI [11]: 5310 nM
- GI50 [12]: 31.5 nM
- TGI [12]: 470 nM
- GI50 [13]: 12.5 nM
- TGI [13]: 45.3 nM
- GI50 [14]: 23.1 nM
- TGI [14]: 54.9 nM
- GI50 [15]: 48.3 nM
- TGI [15]: 30700 nM
- GI50 [16]: 51.4 nM
- TGI [16]: > 88100 nM
- GI50 [17]: 23.1 nM
- TGI [17]: 85.4 nM
- GI50 [18]: 49.9 nM
- TGI [18]: > 100000 nM
- GI50 [19]: 39.1 nM
- TGI [19]: > 59400 nM
- GI50 [20]: 28.7 nM
- TGI [20]: 84.7 nM
- GI50 [21]: 22.9 nM
- TGI [21]: 7380 nM
- GI50 [22]: 35 nM
- GI50 [23]: 30.7 nM
- TGI [23]: 128 nM
- GI50 [24]: 31.8 nM
- TGI [24]: 100 nM
- GI50 [25]: 38 nM
- TGI [25]: > 50000 nM
- GI50 [26]: 29.6 nM
- TGI [26]: 994 nM
- GI50 [27]: 40.8 nM
- TGI [27]: > 100000 nM
- GI50 [28]: 37.1 nM
- TGI [28]: 20500 nM
- GI50 [29]: 26.4 nM
- TGI [29]: 10700 nM
- GI50 [30]: 37.5 nM
- TGI [30]: 21700 nM
- GI50 [31]: 37.3 nM
- TGI [31]: 9480 nM
- GI50 [32]: 36.1 nM
- TGI [32]: 3650 nM
- GI50 [33]: 36.9 nM
- TGI [33]: 14600 nM
- GI50 [34]: 17.9 nM
- TGI [34]: 74.8 nM
- GI50 [35]: 23.4 nM
- TGI [35]: 55.1 nM
- GI50 [36]: 46.7 nM
- TGI [36]: 9000 nM
- GI50 [37]: 34.3 nM
- TGI [37]: 27000 nM
- GI50 [38]: 40.2 nM
- TGI [38]: 13200 nM
- GI50 [39]: 37.1 nM
- TGI [39]: > 100000 nM
- GI50 [40]: < 10 nM
- TGI [40]: < 21.2 nM
- GI50 [41]: < 11.8 nM
- TGI [41]: 40.9 nM
- GI50 [42]: 21.1 nM
- TGI [42]: 48 nM
- GI50 [43]: < 10 nM
- TGI [43]: 16.8 nM
- GI50 [44]: < 10 nM
- TGI [44]: 26.3 nM
- GI50 [45]: 28.9 nM
- TGI [45]: 823 nM
- GI50 [46]: 36.5 nM
- TGI [46]: 14000 nM
- GI50 [47]: 19.7 nM
- TGI [47]: 36.9 nM
- GI50 [48]: 38.9 nM
- TGI [48]: 15700 nM
- GI50 [49]: 34.3 nM
- TGI [49]: 13000 nM
- GI50 [50]: 53.2 nM
- TGI [50]: > 66500 nM
- GI50 [51]: < 12.4 nM
- TGI [51]: 33800 nM
- GI50 [52]: 20.4 nM
- TGI [52]: 42.7 nM
- GI50 [53]: < 10 nM
- TGI [53]: 21700 nM
- GI50 [54]: 29.4 nM
- TGI [54]: 12700 nM
- GI50 [55]: 31.7 nM
- TGI [55]: 13400 nM
- GI50 [56]: 38.4 nM
- TGI [56]: 22700 nM
- GI50 [57]: 48.5 nM
- TGI [57]: 14300 nM
- GI50 [58]: 37.3 nM
- TGI [58]: 14100 nM
